Measured values: ChEMBL document CHEMBL6178014, “Discovery and Administration Optimization of Novel Selective CDK9 Inhibitor, 1-7a-B1, for Improved Pharmacokinetics and Antitumor Efficacy In Vivo” (J Med Chem, 2025)
Calls of active or inactive are those of the source. No cut-off for these calls is given here.

Tests used:
CDK1/Cyclin A = CDK1/Cyclin A (Homo sapiens, UniProt P06493); assay: Inhibition of CDK1/cyclA2 (unknown origin) by ADP-Glo assay; assay type: protein-complex assay
NCM460 = assay: Cytotoxicity against human NCM460 cells assessed as cell viability incubated for 48 hrs by CCK8 assay; assay type: toxicity, cell-based; settings: ncm460, 48 h
HCT-116 [1] = assay: Antiproliferative activity against human HCT-116 cells assessed as reduction in colony formation incubated for 14 days by crystal violet staining based analysis; assay type: functional, cell-based; settings: dose 50-400 nM, time 14.0 day
HCT-116 [2] = assay: Induction of apoptosis in human HCT-116 cells assessed as increase in apoptotic cells by measuring red fluorescence by TUNEL staining based fluorescence microscopic analysis; assay type: functional, cell-based; settings: dose 50-400 nM
[3] = target: Cyclin-dependent kinase 9 (Homo sapiens) (UniProt P50750); assay: Inhibition of CDK9 in human HCT-116 cells assessed as reduction in phosphorylation of RNA polymerase II at Ser2 residue at 100 to 400 nM incubated for 48 hrs by Western blot analysis; assay type: cell-based; settings: dose 100-400 nM
Sequence of Cyclin-dependent kinase 9 (Homo sapiens) (P50750 whole entry): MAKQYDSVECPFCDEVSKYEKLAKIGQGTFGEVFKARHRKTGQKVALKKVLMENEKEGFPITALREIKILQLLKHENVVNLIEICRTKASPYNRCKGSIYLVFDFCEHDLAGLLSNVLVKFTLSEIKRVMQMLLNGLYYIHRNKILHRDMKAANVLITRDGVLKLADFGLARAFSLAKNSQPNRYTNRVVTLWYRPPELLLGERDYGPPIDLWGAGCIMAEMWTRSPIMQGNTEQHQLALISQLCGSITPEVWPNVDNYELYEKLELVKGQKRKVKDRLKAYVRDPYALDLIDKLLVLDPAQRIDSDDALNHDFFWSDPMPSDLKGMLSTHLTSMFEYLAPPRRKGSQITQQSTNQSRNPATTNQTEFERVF

HCT-116 [4] = assay: Downregulation of Mcl-1 mRNA level in human HCT-116 cells at 200 to 400 nM incubated for 48 hrs by qRT-PCR analysis; assay type: functional, cell-based; settings: dose 200-400 nM
HCT-116 [5] = assay: Downregulation of Bcl-2 mRNA level in human HCT-116 cells at 200 to 400 nM incubated for 48 hrs by qRT-PCR analysis; assay type: functional, cell-based; settings: dose 200-400 nM
HCT-116 [6] = assay: Downregulation of Bcl-2 level in human HCT-116 cells at 200 to 400 nM incubated for 48 hrs by Western blot analysis; assay type: functional, cell-based; settings: dose 200-400 nM
HCT-116 [7] = assay: Induction of apoptosis in human HCT-116 cells assessed as increase in caspase-3 cleavage incubated for 48 hrs by Western blot analysis; assay type: functional, cell-based; settings: dose 100-400 nM
HCT-116 [8] = assay: Induction of apoptosis in human HCT-116 cells assessed as increase in PARP cleavage incubated for 48 hrs by Western blot analysis; assay type: functional, cell-based; settings: dose 100-400 nM
[9] = target: E3 ubiquitin-protein ligase Mdm2 (Homo sapiens) (UniProt Q00987); assay: Inhibition of MDM2 phosphorylation at ser166 residue in human HCT-116 cells at 100 to 400 nM incubated for 48 hrs by Western blot analysis; assay type: cell-based; settings: dose 100-400 nM
Sequence of E3 ubiquitin-protein ligase Mdm2 (Homo sapiens) (Q00987 whole entry, looked up): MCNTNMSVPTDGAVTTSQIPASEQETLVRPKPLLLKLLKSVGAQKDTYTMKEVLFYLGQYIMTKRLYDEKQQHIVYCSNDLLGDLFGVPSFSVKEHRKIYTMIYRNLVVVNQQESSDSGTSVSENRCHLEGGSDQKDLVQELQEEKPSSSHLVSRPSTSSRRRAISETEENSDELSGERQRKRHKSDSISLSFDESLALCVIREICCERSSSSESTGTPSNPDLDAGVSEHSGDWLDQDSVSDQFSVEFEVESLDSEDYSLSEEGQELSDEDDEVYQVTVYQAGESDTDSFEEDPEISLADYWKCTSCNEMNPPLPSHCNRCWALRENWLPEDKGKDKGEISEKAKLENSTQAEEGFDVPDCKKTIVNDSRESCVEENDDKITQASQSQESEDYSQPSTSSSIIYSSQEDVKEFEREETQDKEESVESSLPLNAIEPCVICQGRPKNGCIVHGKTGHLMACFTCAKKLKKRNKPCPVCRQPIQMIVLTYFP

HCT-116 [10] = assay: Effect on MDM2 expression in human HCT-116 cells at 100 to 400 nM incubated for 48 hrs by Western blot analysis; assay type: functional, cell-based; settings: dose 100-400 nM
HCT-116 [11] = assay: Inhibition of wild type p53/MDM2 protein-protein interaction in human HCT-116 cells at 200 nM incubated for 48 hrs by co-immunoprecipitation (Co-IP) analysis; assay type: cell-based
HCT-116 [12] = assay: Upregulation of p21 expression in human HCT-116 cells at 100 to 400 nM incubated for 48 hrs by Western blot analysis; assay type: functional, cell-based; settings: dose 100-400 nM
HCT-116 [13] = assay: Upregulation of Bax expression in human HCT-116 cells at 100 to 400 nM incubated for 48 hrs by Western blot analysis; assay type: functional, cell-based; settings: dose 100-400 nM
CYP2C19 = CYP2C19 (Homo sapiens, UniProt P33261); assay: Inhibition of CYP2C19 in human liver microsome at 10 uM pre-incubated with compound for 10 mins in presence of NADPH-regenerating system by LC-MS/MS analysis relative to control; assay type: ADME; settings: liver microsomes
Sequence of CYP2C19 (P33261 whole entry): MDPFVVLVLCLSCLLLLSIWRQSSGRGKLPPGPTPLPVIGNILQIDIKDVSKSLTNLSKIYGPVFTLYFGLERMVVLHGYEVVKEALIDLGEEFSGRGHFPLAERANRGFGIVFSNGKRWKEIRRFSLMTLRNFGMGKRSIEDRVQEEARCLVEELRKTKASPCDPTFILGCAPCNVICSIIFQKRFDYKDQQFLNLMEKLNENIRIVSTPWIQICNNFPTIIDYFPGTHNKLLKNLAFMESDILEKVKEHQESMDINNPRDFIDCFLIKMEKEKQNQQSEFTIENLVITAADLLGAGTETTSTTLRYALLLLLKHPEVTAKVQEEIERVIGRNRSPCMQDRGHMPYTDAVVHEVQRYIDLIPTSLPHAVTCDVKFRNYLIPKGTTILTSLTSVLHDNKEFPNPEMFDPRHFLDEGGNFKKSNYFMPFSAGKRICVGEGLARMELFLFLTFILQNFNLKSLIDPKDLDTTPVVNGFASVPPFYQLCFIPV

[14] = Metabolic stability in human liver assessed as intrinsic clearance at 100 uM pre-incubated with compound for 60 mins followed by NADPH addition and measured up to 60 mins by LC-MS/MS analysis; assay type: ADME, tissue-based; settings: read-out: CLH
[15] = MRT (infinity) in Sprague-Dawley rat at 2 mg/kg, iv measured after 24 hrs by LC-MS/MS analysis; assay type: ADME, organism-based; settings: in vivo
[16] = AUC (0 to t) in Sprague-Dawley rat at 2 mg/kg, iv measured after 24 hrs by LC-MS/MS analysis; assay type: ADME, organism-based; settings: in vivo
[17] = Half life in Sprague-Dawley rat at 30 mg/kg, po measured after 24 hrs by LC-MS/MS analysis; assay type: ADME, organism-based; settings: in vivo
[18] = Cmax in Sprague-Dawley rat at 30 mg/kg, po measured after 24 hrs by LC-MS/MS analysis; assay type: ADME, organism-based; settings: in vivo
[19] = MRT (infinity) in Sprague-Dawley rat at 30 mg/kg, po measured after 24 hrs by LC-MS/MS analysis; assay type: ADME, organism-based; settings: in vivo
[20] = AUC (0 to t) in Sprague-Dawley rat at 30 mg/kg, po measured after 24 hrs by LC-MS/MS analysis; assay type: ADME, organism-based; settings: in vivo
[21] = Tmax in Sprague-Dawley rat at 30 mg/kg, po as submicron emulsion measured after 24 hrs by LC-MS/MS analysis; assay type: ADME, organism-based; settings: in vivo
[22] = Cmax in Sprague-Dawley rat at 30 mg/kg, po as submicron emulsion measured after 24 hrs by LC-MS/MS analysis; assay type: ADME, organism-based; settings: in vivo
[23] = AUC (0 to infinity) in Sprague-Dawley rat at 30 mg/kg, po as submicron emulsion measured after 24 hrs by LC-MS/MS analysis; assay type: ADME, organism-based; settings: in vivo
[24] = Toxicity in female BALB/c nu-nu mouse xenografted with human HCT-116 cells assessed as body weight loss at 20 mg/kg, po as submicron emulsion administered once daily for 3 weeks; assay type: organism-based; settings: in vivo, 504 h
[25] = Toxicity in female BALB/c nu-nu mouse xenografted with human HCT-116 cells assessed as histopathological changes in liver at 40 mg/kg, po administered once daily for 3 weeks by H and E staining based analysis; assay type: organism-based; settings: in vivo, 504 h
[26] = Toxicity in female BALB/c nu-nu mouse xenografted with human HCT-116 cells assessed as histopathological changes in spleen at 40 mg/kg, po administered once daily for 3 weeks by H and E staining based analysis; assay type: organism-based; settings: in vivo, 504 h
[27] = Toxicity in female BALB/c nu-nu mouse xenografted with human HCT-116 cells assessed as histopathological changes in kidney at 40 mg/kg, po administered once daily for 3 weeks by H and E staining based analysis; assay type: organism-based; settings: in vivo, 504 h
[28] = Toxicity in female BALB/c nu-nu mouse xenografted with human HCT-116 cells assessed as histopathological changes in liver at 20 mg/kg, po as submicron emulsion administered once daily for 3 weeks by H and E staining based analysis; assay type: organism-based; settings: in vivo, 504 h
[29] = Toxicity in female BALB/c nu-nu mouse xenografted with human HCT-116 cells assessed as histopathological changes in spleen at 20 mg/kg, po as submicron emulsion administered once daily for 3 weeks by H and E staining based analysis; assay type: organism-based; settings: in vivo, 504 h
[30] = Toxicity in female BALB/c nu-nu mouse xenografted with human HCT-116 cells assessed as histopathological changes in kidney at 20 mg/kg, po as submicron emulsion administered once daily for 3 weeks by H and E staining based analysis; assay type: organism-based; settings: in vivo, 504 h
HCT-116 [31] = assay: Antitumor activity against human HCT-116 cells xenografted in female BALB/c nu-nu mouse assessed as downregulation of c-Myc mRNA expression at 40 mg/kg, po incubated for 48 hrs by qRT-PCR analysis; assay type: functional, organism-based
HCT-116 [32] = assay: Antitumor activity against human HCT-116 cells xenografted in female BALB/c nu-nu mouse assessed as downregulation of Bcl-2 mRNA expression at 40 mg/kg, po incubated for 48 hrs by qRT-PCR analysis; assay type: functional, organism-based

Sequence of CDK1/Cyclin A (P06493 whole entry): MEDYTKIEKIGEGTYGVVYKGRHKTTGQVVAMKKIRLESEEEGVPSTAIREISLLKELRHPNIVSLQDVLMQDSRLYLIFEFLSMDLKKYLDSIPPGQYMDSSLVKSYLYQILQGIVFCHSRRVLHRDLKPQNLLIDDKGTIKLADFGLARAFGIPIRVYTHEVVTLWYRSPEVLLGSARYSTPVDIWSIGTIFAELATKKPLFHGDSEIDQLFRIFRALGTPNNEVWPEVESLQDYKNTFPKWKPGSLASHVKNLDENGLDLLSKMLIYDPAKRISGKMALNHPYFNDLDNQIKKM
Sequence of CDK1/Cyclin A (P20248 whole entry, further chain): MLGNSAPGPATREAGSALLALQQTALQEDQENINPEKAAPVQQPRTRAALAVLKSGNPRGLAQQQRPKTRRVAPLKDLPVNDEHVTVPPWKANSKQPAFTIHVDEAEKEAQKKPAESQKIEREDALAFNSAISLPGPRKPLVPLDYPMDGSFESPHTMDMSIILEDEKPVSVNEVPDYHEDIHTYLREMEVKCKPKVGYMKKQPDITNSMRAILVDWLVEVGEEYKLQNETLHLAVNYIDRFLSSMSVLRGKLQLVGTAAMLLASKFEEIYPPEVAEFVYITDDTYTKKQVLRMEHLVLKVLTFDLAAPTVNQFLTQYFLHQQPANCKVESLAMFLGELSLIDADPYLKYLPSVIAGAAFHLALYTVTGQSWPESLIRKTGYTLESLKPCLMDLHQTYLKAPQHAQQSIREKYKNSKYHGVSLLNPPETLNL

For `CC(C)Oc1cc(F)ccc1-c1ccnc(NC(=O)Nc2cccc(C(=O)N3CCN(C)CC3)c2)c1`, the IC50 (CDK1/Cyclin A) was 3.87 µM, the Activity (NCM460) was “Toxic” and the Activity (HCT-116 [1]) was “Dose-dependent-effect”. The Activity (HCT-116 [2]) was “Dose-dependent-effect”, the Activity [3] was “Active” and the Activity (HCT-116 [4]) was “Active”. For the same compound, the Activity (HCT-116 [5]) was “Active”, the Activity (HCT-116 [6]) was “Active” and the Activity (HCT-116 [7]) was “Dose-dependent-effect”. For the same compound, the Activity (HCT-116 [8]) was “Dose-dependent-effect”, the inhibition [9] was “Active” and the Activity (HCT-116 [10]) was “inactive”. For the same compound, the inhibition (HCT-116 [11]) was “Active”, the Activity (HCT-116 [12]) was “Active” and the Activity (HCT-116 [13]) was “Active”. For the same compound, the inhibition at 10 µM (CYP2C19) was 69.6%, the CLint scaled at 100 µM [14] was 19 L/h/kg and the MRT inf [15] was 20.1 min. For the same compound, the AUC(0-t) at 24 h [16] was 0.403 µg·h/mL, the half-life [17] was 47 min and the Cmax [18] was 0.302 µg/mL. For the same compound, the MRT inf [19] was 87 min, the AUC(0-t) at 24 h [20] was 0.897 µg·h/mL and the Tmax [21] was 30 min. For the same compound, the Cmax [22] was 1.02 µg/mL, the AUC [23] was 1.611 µg·h/mL and the Activity [24] was “Non-toxic”. For the same compound, the Activity [25] was “Non-toxic”, the Activity [26] was “Non-toxic” and the Activity [27] was “Non-toxic”. For the same compound, the Activity [28] was “Non-toxic”, the Activity [29] was “Non-toxic” and the Activity [30] was “Non-toxic”. The Activity (HCT-116 [31]) was “Active” and the Activity (HCT-116 [32]) was “Active”.
